Assay results: US20230172933A1, “USE OF A COMPOUND OR COMPOSITION COMPRISING AN INHIBITOR OF NLRP1 INFLAMMASOME ACTIVATION FOR THE TREATMENT OF HUMAN AIRWAY INFLAMMATION” (Nanyang Technological University, priority 2020, published 2023)
Entries after “also recorded” stand apart in the source; their conditions may differ.

Legend:
NHBEs = test: Cytokine response of Talabostat-treated NHBEs (Luminex array, ELISA); type: cell-based, human
Experimental: (A) Expression levels of NLRP1 vs. NLRP3 (RNAseq FKPM) in NHBEs. n=21, independent cultures of pooled NHBEs from healthy donors. (B) Expression of NLRP1 vs. NLRP3 in healthy human nasal biopsy. Puncta: positive staining by RNAscope. Nuclei staining: hematoxylin. (C) Overview of cytokine profiling of by HRV16-infected and Talabostat-treated NHBEs. (D) Cells were inoculated with HRV16 at MOI=5 and cultured at 33° C. for 48 hours. Luminex array was performed on conditioned media after removing cell debris. n=3 independent infections and treatment. Cytokines/chemokines that were induced at least 5 fold (p<0.05, Student's t test, lognormal values) are represented by square boxes. […] NHBEs were pretreated with MCC950 (5 μM) or Rupintrivir (10 nM) before HRV16 inoculation or Talabostat (2 μM) treatment. […]
(§1) The following antibodies were used in this study: c-Myc (Santa Cruz Biotechnology #sc-40), HA tag (Santa Cruz Biotechnology, #sc-805), GAPDH (Santa Cruz Biotechnology, #sc-47724), ASC (Adipogen, #AL-177), CASP1 (Santa Cruz Biotechnology, #sc-622), IL1B (R&D systems, #AF-201), FLAG (SigmaAldrich, #F3165), GFP (Abcam, #ab290), NLRP1 (R&D systems, #AF6788), IL18 (Abcam ab207324) and VP2 (QED Bioscience, #18758). HRV16-3Cpro was detected by rabbit serum, a kind gift from Dr. Ann Palmenberg and Dr. James Gern (University of Wisconsin). […]

N/TERT cells = test: Mode of cell death of N/TERT cells by Annexin V and PI inclusion; type: cell-based, human; settings: Talabostat-treated N/TERT cells; marked by PI inclusion
Experimental: (A) Expression of Myc-tagged viral proteases in 293T-ASC-GFP-NLRP1-FLAG cells. Two exposure times were shown. Note that Myc-HRV16-3Cpro was lowly expressed but could activate ASC-GFP specks. (B) Representative wide-field fluorescent images of ASC-GFP specks, NLRP1-HA and Myc-tagged proteases. 293T-ASC-GFP cells were co-transfected with NLRP1-HA and Myc-tagged gZiPro, HRV14-3Cpro or HRV14-3Cpro^C146A and fixed 24 hours post transfection. (C) Validation of ASC KO in N/TERT cells. ASC KO #2 was chosen for further experiments. (E) N/TERT KO cells were transfected with the indicated 3Cpro variants and harvested 24 hours post transfection. Conditioned media was analyzed by IL-1β ELISA. **P<0.01 (Two-way ANOVA). n=3 independent transfections. (F) Modes of cell death of Talabostat-treated, or doxycycline-induced Tet-ON HRV14-3Cpro N/TERT cells assayed […] and PI inclusion. Data are representative of one of two independent experiments.
This provides a robust cellular system to determine if 3Cpros can activate the endogenous NLRP1 inflammasome. […] Live-cell imaging of human keratinocytes expressing GFP-tagged ASC further corroborated that HRV14-3Cpro could induce ASC-GFP speck formation (FIG. 1F). […]

human NLRP1 = test: ASC-GFP speck formation in 293T-ASC-GFP-NLRP1-FLAG cells after Talabostat treatment; type: cell-based; settings: Talabostat 2 μM, 24 hrs, compared to vector-transfected cells
[1] = test system: 3D human bronchial epithelial cultures; test: Talabostat treatment of 3D human bronchial epithelial cultures; type: cell-based; settings: Talabostat 2 μM
Experimental: (A) Expression levels of NLRP1 vs. NLRP3 (RNAseq FKPM) in NHBEs. n=21, independent cultures of pooled NHBEs from healthy donors. (B) Expression of NLRP1 vs. NLRP3 in healthy human nasal biopsy. Puncta: positive staining by RNAscope. Nuclei staining: hematoxylin. (C) Overview of cytokine profiling of by HRV16-infected and Talabostat-treated NHBEs. (D) Cells were inoculated with HRV16 at MOI=5 and cultured at 33° C. for 48 hours. Luminex array was performed on conditioned media after removing cell debris. n=3 independent infections and treatment. Cytokines/chemokines that were induced at least 5 fold (p<0.05, Student's t test, lognormal values) are represented by square boxes. […] NHBEs were pretreated with MCC950 (5 μM) or Rupintrivir (10 nM) before HRV16 inoculation or Talabostat (2 μM) treatment. […] (G) Overview of apical HRV infection 3D human bronchial epithelial cultures. (H) Alcian blue (AB)/periodic acid-Schiff (PAS) staining of HRV16-infected (MOI=3) and Talabostat (2 μM)-treated 3D human bronchial epithelial cultures. (1) IL-18 level in apical or basal media 48 hours post-infection or Talabostat treatment. **P<0.01, ***P<0.001, ****P<0.0001 (Two-way ANOVA). n=3 independent infected/treated cultures. (J) Secretion of cleaved IL-1β and IL-18 and ASC oligomerization in HRV16-infected primary NHBEs. […]

[2] = test system: NLRP1 inflammasome in HRV16-infected NHBEs; test: HRV16-induced IL-1β and IL-18 secretion in NHBEs (ELISA); type: cell-based, human; settings: HRV16 MOI=5, 33° C., 48 hours, pre-treated: MLN4924 1 μM, Bortezomib 1 μM, MCC950 5 μM, Rupintrivir 10 nM
Experimental: (§2) (A) Expression levels of NLRP1 vs. NLRP3 (RNAseq FKPM) in NHBEs. n=21, independent cultures of pooled NHBEs from healthy donors. (B) Expression of NLRP1 vs. NLRP3 in healthy human nasal biopsy. Puncta: positive staining by RNAscope. Nuclei staining: hematoxylin. (C) Overview of cytokine profiling of by HRV16-infected and Talabostat-treated NHBEs. (D) Cells were inoculated with HRV16 at MOI=5 and cultured at 33° C. for 48 hours. Luminex array was performed on conditioned media after removing cell debris. n=3 independent infections and treatment. Cytokines/chemokines that were induced at least 5 fold (p<0.05, Student's t test, lognormal values) are represented by square boxes. […] NHBEs were pretreated with MCC950 (5 μM) or Rupintrivir (10 nM) before HRV16 inoculation or Talabostat (2 μM) treatment. […] (G) Overview of apical HRV infection 3D human bronchial epithelial cultures. (H) Alcian blue (AB)/periodic acid-Schiff (PAS) staining of HRV16-infected (MOI=3) and Talabostat (2 μM)-treated 3D human bronchial epithelial cultures. (1) IL-18 level in apical or basal media 48 hours post-infection or Talabostat treatment. **P<0.01, ***P<0.001, ****P<0.0001 (Two-way ANOVA). n=3 independent infected/treated cultures. (J) Secretion of cleaved IL-1β and IL-18 and ASC oligomerization in HRV16-infected primary NHBEs. Cells were inoculated with HRV16 (MOI=5) or treated with Talabostat (2 μM) for 48 hours at 33° C.
(§3) (A) Endogenous NLRP1, ASC and caspase-1 are indispensable for HRV16-induced IL-18 secretion in NHBEs. Cas9-control, NLRP1, ASC and CASP1 KO NHBEs were infected with HRV16 as before. Conditioned media were harvested 48 hours post-infection. (B) NLRP1 is genetically required for HRV16-induced IL-18 cleavage and ASC oligomerization. Cas9 control, NLRP1 and ASC KO NHBEs were infected with HRV16 as before. Cleaved IL-18 are marked with arrows. (C) Mutating the NLRP1 cleavage site abrogates HRV16-triggered IL-18 secretion in NHBEs. NLRP1 KO NHBEs were rescued with lentiviral constructs expressing FLAG-tagged NLRP1^WT or NLRP1^Q130A, which carried silent mutations at the PAM sites. The rescued cells were infected with HRV16 or treated with Talabostat. Conditioned media was analyzed by IL-18 ELISA. **P<0.01, ***P<0.001, n=3 replicates from one of two independent infections. (D) Q130A abrogates NLRP1 cleavage, IL-18 maturation and ASC oligomerization in NHBEs. NLRP1 KO or NLRP1^WT- or NLRP1^Q130A-rescued cells were infected with HRV16 or treated with Talabostat. Cells were harvested 48 hours post infection. Arrow: NLRP1 cleavage product in lane 8 HRV16. *: Non-specific NLRP1 degradation product that occurs right below the a.a. 131-1213 cleavage fragment. See also FIG. 3E, 5E, 5D. (E) MLN4924 and Bortezomib blocks HRV16-induced IL-18 secretion. NHBEs were pre-treated with MLN4924 (1 μM) or Bortezomib (1 μM) before HRV16 infection or Talabostat treatment. IL-18 levels were measured with ELISA. ****, p<0.0001 (Two-way ANOVA), n=3 independent infections/treatment. (F) MLN4924 and Bortezomib blocks HRV16-induced IL-1β secretion. […] Lysates from HRV16-infected NHBEs in FIGS. 9E-F were analyzed by Western blot 48 hours post HRV16 inoculation.
as §1, with “Wisconsin). Cytokine and chemokine measurements were carried out with human IL-1B ELISA kit (BD, #557953), human IL-18 ELISA kit (MBL Bioscience, #7620) and Immune Monitoring 65-Plex Human ProcartaPlex™ Panel (ThermoFisher EPX650-10065-901).” for “Wisconsin).”

[3] = test system: NLRP1 inflammasome in Talabostat-treated NHBEs; test: Talabostat-induced IL-1β and IL-18 secretion in NHBEs (ELISA); type: cell-based, human; settings: Talabostat 2 μM, pre-treated: MLN4924 1 μM, MCC950 5 μM, Rupintrivir 10 nM
Experimental: as §2
(A) Endogenous NLRP1, ASC and caspase-1 are indispensable for HRV16-induced IL-18 secretion in NHBEs. Cas9-control, NLRP1, ASC and CASP1 KO NHBEs were infected with HRV16 as before. Conditioned media were harvested 48 hours post-infection. (B) NLRP1 is genetically required for HRV16-induced IL-18 cleavage and ASC oligomerization. Cas9 control, NLRP1 and ASC KO NHBEs were infected with HRV16 as before. Cleaved IL-18 are marked with arrows. […] Conditioned media was analyzed by IL-18 ELISA. **P<0.01, ***P<0.001, n=3 replicates from one of two independent infections. […] IL-18 levels were measured with ELISA. ****, p<0.0001 (Two-way ANOVA), n=3 independent infections/treatment. […] Lysates from HRV16-infected NHBEs in FIGS. 9E-F were analyzed by Western blot 48 hours post HRV16 inoculation.
as §1

HRV16 = test: VP2 maturation in HRV16-infected NHBEs (Western blot); type: cell-based, HRV-A16; settings: 48 hours post inoculation, MLN4924 1 μM
Experimental: as §3, with “Arrow: NLRP1 cleavage product in lane 8 HRV16. *: Non-specific NLRP1 degradation product that occurs right below the a.a. 131-1213 cleavage fragment. See also FIG. 3E, 5E, 5D. (E) MLN4924 and Bortezomib blocks HRV16-induced IL-18 secretion. NHBEs were pre-treated with MLN4924 (1 μM) or Bortezomib (1 μM) before HRV16 infection or Talabostat treatment.” left out, “infections/treatment.” for “infections/treatment. (F) MLN4924 and Bortezomib blocks HRV16-induced IL-1β secretion.”, “inoculation. […]” for “inoculation.”

NLRP1 = NLRP1 self-oligomerization (BN-PAGE) and cleavage fragment (SDS-PAGE/Western blot) in 293T-NLRP1-FLAG cells transfected with HRV14-3Cpro; type: cell-based, human
[4] = test system: endogenous NLRP1 inflammasome; test: Endogenous NLRP1 inflammasome in doxycycline-induced Tet-ON HRV14-3Cpro N/TERT keratinocytes; type: cell-based, human
human NLRP1 inflammasome = test: HRV14-3Cpro-induced ASC-GFP speck formation in 293T-ASC-GFP-NLRP1-FLAG reporter cells; type: cell-based; settings: 293T-ASC-GFP-NLRP1-FLAG cells transfected with HRV14-3Cpro; MLN4924 1 μM, MG132 2.5 μM, Bortezomib 0.5 μM, phenylalanine 1 mM; 24 hours
NLRP1 inflammasome = test: Talabostat-induced IL-1β secretion in N/TERT keratinocytes; type: cell-based, human; settings: ELISA of conditioned media

## CC(C)[C@H](N)C(=O)N1CCC[C@H]1B(O)O [Talabostat]
NHBEs; ELISA
  IL-1β secretion: significantly secreted
NHBEs; Luminex array on conditioned media
  IL-18 induction (cytokine profiling): most highly induced cytokine
N/TERT cells
  mode of cell death: exclusively caused lytic cell death
Human NLRP1
  percentage of cells forming ASC-GFP specks: significant increase
[1]
  epithelium morphology (Alcian blue/PAS staining): significant disruption of the epithelium, increased mucin production and goblet cell engorgement
[1]; 48 hours
  IL-18 level in apical or basal media: led to IL-18 secretion in both the apical and basal media

## NS(=O)(=O)OC[C@@H]1C[C@@H](n2ccc3c(N[C@H]4CCc5ccccc54)ncnc32)C[C@@H]1O [MLN4924, ((1S,2S,4R)-4-(4-(((S)-2,3-dihydro-1H-inden-1-yl)amino)-7H-pyrrolo[2,3-d]pyrimidin-7-yl)-2-hydroxycyclopentyl)methyl sulfamate]
[2]
  HRV16-induced IL-1β secretion: completely blocked; also recorded: blocks
  HRV16-induced IL-18 secretion: completely blocked; also recorded: blocks
[3]
  Talabostat-induced IL-1β secretion: only had a modest effect
  Talabostat-induced IL-18 secretion: did not affect
HRV16
  accumulation of mature capsid protein VP2 (3Cpro-dependent VP2 maturation): did not affect; also recorded: does not affect
NLRP1; 293T-NLRP1-FLAG cells transfected with HRV14-3Cpro, Western blot
  stabilization of the post-cleavage NLRP1 fragment (a.a. 131-1213): led to the stabilization
NLRP1; 293T-NLRP1-FLAG cells, BN-PAGE, drugs for 24 hours, MG132 2.5 μM
  HRV14-3Cpro-induced NLRP1 self-oligomerization: similarly blocked; also recorded: inhibits
[4]; doxycycline 24 hours
  ASC oligomerization upon HRV14-3Cpro induction: completely blocked
[4]; doxycycline 24 hours, Western blot, ELISA
  mature IL-1β secretion upon HRV14-3Cpro induction: completely blocked
[4]; doxycycline with drug for 24 hours
  endogenous 3Cpro-induced NLRP1 inflammasome and pyroptosis: inhibits
[4]; fragment below detection limit in untreated cells
  stabilization of the post-cleavage NLRP1 fragment: stabilized
Human NLRP1 inflammasome
  HRV14-3Cpro-induced ASC-GFP speck formation: blocked; also recorded: abrogate
NLRP1 inflammasome
  Talabostat-induced IL-1β secretion: much less dramatic effect
